Test results from ChEMBL document CHEMBL1123367, “Furanose-pyranose isomerization of reduced pyrimidine and cyclic urea ribosides” (J Med Chem, 1986).

Experiments:
[1] = Half-life of the initial pseudo-first-order isomerization at apparent pH 1.0 and 25 degree celsius; assay type: ADME; settings: read-out: T1/2 app
[2] = Half-life of the initial pseudo-first-order isomerization at apparent pH 1.0 and 37 degree celsius; assay type: ADME; settings: read-out: T1/2 app (converted)
[3] = Half-life of the initial pseudo-first-order isomerization at apparent pH 2.0 and 25 degree celsius; assay type: ADME; settings: read-out: T1/2 app (converted)
[4] = Half-life of the initial pseudo-first-order isomerization at apparent pH 2.8 and 37 degree celsius; assay type: ADME; settings: read-out: T1/2 app (converted)
Cytidine deaminase = Cytidine deaminase (Mus musculus, UniProt P56389); experiment: Compound was tested […] for its ability to inhibit mouse kidney cytidine deaminase (CDA)
Cytidine deaminase, sequence (P56389 whole entry): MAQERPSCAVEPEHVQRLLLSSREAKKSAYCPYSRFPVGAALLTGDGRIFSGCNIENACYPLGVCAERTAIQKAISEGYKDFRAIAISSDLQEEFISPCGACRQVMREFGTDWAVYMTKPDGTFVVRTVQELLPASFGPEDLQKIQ

| Compound | half-life [1] [h] | half-life [2] [h] | half-life [3] [h] | half-life [4] [h] | Ki (Cytidine deaminase) [µM] |
| --- | --- | --- | --- | --- | --- |
| O=C1NCCCN1[C@@H]1O[C@H](CO)[C@@H](O)[C@H]1O | < 0.2 | 0.63 | 2.23 | 5.2 | – |
| O=C1NCCCCN1[C@@H]1OC[C@@H](O)[C@@H](O)[C@H]1O | – | – | – | – | 6.6 |
| O=C1NCCCN1C1OC[C@@H](O)[C@H](O)[C@@H]1O (stereo partly specified) | – | – | – | – | > 50 |
